Experimental data as given in EP4105215A1, “CO-CRYSTAL OF APIXABAN WITH A CARBOXYLIC ACID” (University of Limerick, priority 2021, dated 2022).

Legend:
[1] = single 10 mg dose; cited from earlier work
[2] = Dissolution / solubility in PBS 6.8 analysed by HPLC; assay type: physicochemical; settings: PBS 6.8 at 37°C, triplicate
Protocol: 25 mg equivalent of APX was sieved to 75-100µm using standard-mesh sieve and the resulting slurry was added to 500 mL phosphate buffer solution (PBS) 6.8 at 37°C stirring at 100 rpm. 1mL aliquots were taken at 1 3, 5, 10, 15, 30, 60, 120, 240, 480, 720 and 1440 minutes. Each aliquot filtered through a 0.45 µm Whattmann syringe filter. 500 µL of filtered aliquot and 500 µL of methanol were pipetted into a vial and injected to HPLC. All dissolution experiments for APX and cocrystals were carried in triplicates.
The dissolution aliquots were analysed using a Shimadzu (LC-20A) HPLC instrument with a Gemini® C18 (250 x 4.6 x 5 µm) column. The wavelength was set to 235nm with an injection volume of 10 µL and a flow rate of 1 mL/min with the oven set at 40°C.
Physicochemical properties such as PBS 6.8 solubility were analysed by high performance liquid chromatography (HPLC). […] Table 4: Solubility of APX and respective cocrystals in PBS 6.8 at 37°C

For `COc1ccc(-n2nc(C(N)=O)c3c2C(=O)N(c2ccc(N4CCCCC4=O)cc2)CC3)cc1` [APX, 1-(4-methoxyphenyl)-7-oxo-6-(4-(2-oxopiperidin-1-yl)phenyl)-4,5,6,7-tetrahydro-1H-pyrazolo[3,4-c]pyridine-3-carboxamide], the oral bioavailability [1] is listed as “about 50%”, the “Acute, T= 60 mins Conc” value ([2]; 60 mins) is listed as 0.0241 mg/mL and the “Chronic, T= 720mins Conc” value ([2]; 720 mins) is listed as 0.0303 mg/mL.
